According to patent US4196216A, “Novel benzylidene amini-oxyalkyl carboxylic acids and carboxylic acid derivatives” (U.S. Philips Corporation, priority 1968, dated 1980):

What was measured:
[1] = known compound, background, cited from earlier work
[2] = acute toxicity (LD50 table, level of toxicity); conditions: in vivo
From the text: This low level of toxicity appears from the following table: […]

Rhine virus = experiment: activity against Rhine virus
[3] = anti-inflammatory and analgetic activities, general statement; assay type: in vivo; conditions: test not specified
[4] = route of administration: par(enteral)
[5] = po, route of administration: or(al)

In the case of COc1ccc2c(c1)c(CC(=O)O)cn2-c1ccc(Cl)cc1 [(N-p.chlorophenyl-5-methoxy indolyl-3) acetic acid], the potency [1] is given as “highly potent”, the toxicity level [1] is given as “high toxicity level” and the therapeutic level ([1]; due to high toxicity) is given as “quite low”.

In the case of CC(=NOCC(=O)O)c1ccc(Br)cc1 [Br H H CH3 CH2 OH], the LD50 at 24 h [2, 4] is reported as greater than 100 mg/kg.

With CC(=NOCC(N)=O)c1ccc(Cl)c(Cl)c1 [C1 C1 H CH3 CH2 NH2, [(α-methyl-3,4-dichlorobenzylidene amino)oxy] acetamide] the LD50 at 24 h [2, 5] was roughly 1000 mg/kg and the “activity against Rhine virus” value (Rhine virus) was “interesting activity”.

CC(=NOCC(=O)O)c1ccc(Cl)c(Cl)c1 [C1 C1 H CH3 CH2 OH, [(α-methyl-3,4-dichlorobenzylene amino)oxy] acetic acid] showed an LD50 at 24 h [2, 4] greater than 320 mg/kg.

With CC(=NOCC(=O)O)c1ccc(Cl)cc1Cl [C1 H C1 CH3 CH2 OH, [(α-methyl-2,4-dichlorobenzylidene amino)oxy] acetic acid] the LD50 at 24 h [2, 4] was greater than 320 mg/kg and the “activity against Rhine virus” value (Rhine virus) was “interesting activity”.

For CC(=NOCCC(N)=O)c1ccc(Cl)cc1 [C1 H H CH3 (CH2)2 NH2, 3-[(α-methyl-4-chlorobenzylideneamino)oxy] propionamide], the LD50 at 24 h [2, 5] was greater than 1000 mg/kg.

In the case of CC(=NOCCC(=O)O)c1ccc(Cl)cc1 [C1 H H CH3 (CH2)2 OH, 3-[(α-methyl-4-chlorobenzylideneamino)oxy] propionic acid], the LD50 at 24 h [2, 4] is reported as greater than 100 mg/kg.

With CC(=NOCCCC(=O)O)c1ccc(Cl)cc1 [C1 H H CH3 (CH2)3 OH, 4-[(α-methyl-4-chlorobenzylideneamino)oxy] butyric acid] the LD50 at 24 h [2, 4] was greater than 320 mg/kg and the “activity against Rhine virus” value (Rhine virus) was “interesting activity”.

CC(=NOCC(=O)N(C)C)c1ccc(Cl)cc1 [C1 H H CH3 CH2 (CH3)2 N, [(α-methyl-4-chlorobenzylidene amino)oxy]-N,N-dimethyl acetamide] showed an LD50 at 24 h [2, 5] greater than 1000 mg/kg.

In the case of CC(=NOCC(N)=O)c1ccc(Cl)cc1 [C1 H H CH3 CH2 NH2, [(α-methyl-4-chlorobenzylidene amino)oxy]acetamide], the LD50 at 24 h [2, 5] is reported as greater than 1000 mg/kg, the LD50 at 48 h [2, 5] is reported as greater than 1000 mg/kg and the activities [3] is reported as “particularly strong activities”. The “activity against Rhine virus” value (Rhine virus) was “interesting activity”.

Work on CNC(=O)CON=C(C)c1ccc(Cl)cc1 [C1 H H CH3 CH2 NHCH3, [(α-methyl-4-chlorobenzylidene amino)oxy]-N-methyl acetamide] yielded an LD50 at 24 h [2, 5] greater than 1000 mg/kg.

With CC(=NOCC(=O)NN)c1ccc(Cl)cc1 [C1 H H CH3 CH2 NHNH2, [(α-methyl-4-chlorobenzylidene amino)oxy] acet hydrazide] the LD50 at 24 h [2, 5] was roughly 1000 mg/kg and the “activity against Rhine virus” value (Rhine virus) was “interesting activity”.

CC(=NOCC(=O)OCc1ccccc1)c1ccc(Cl)cc1 [C1 H H CH3 CH2 OCH2 C6 H5] showed an LD50 at 24 h [2, 5] greater than 1000 mg/kg.

For COC(=O)CON=C(C)c1ccc(Cl)cc1 [C1 H H CH3 CH2 OCH3, [(α-methyl-4-chlorobenzylidene amino)oxy] acetic acid methyl ester], the LD50 at 24 h [2, 5] was greater than 1000 mg/kg, the LD50 at 48 h [2, 5] was greater than 1000 mg/kg and the activities [3] was “particularly strong activities”.

Work on CC(=NOCC(=O)OC(C)C)c1ccc(Cl)cc1 [C1 H H CH3 CH2 OCH(CH3)2] yielded an LD50 at 24 h [2, 5] greater than 1000 mg/kg.

In the case of CC(=NOCC(=O)O)c1ccc(Cl)cc1 [C1 H H CH3 CH2 OH, [(α-methyl-4-chlorobenzylidene amino)oxy] acetic acid], the LD50 at 24 h [2, 5] is reported as greater than 1000 mg/kg, the LD50 at 48 h [2, 5] is reported as greater than 1000 mg/kg and the activities [3] is reported as “particularly strong activities”.

With CCCCCCCCOC(=O)CON=C(C)c1ccc(Cl)cc1 [C1 H H CH3 CH2 OnC8 H17] the LD50 at 24 h [2, 5] was greater than 1000 mg/kg.

With O=C(O)CON=Cc1ccc(Cl)cc1 [C1 H H H CH2 OH, [(4-chlorobenzylidene amino)oxy] acetic acid] the LD50 at 24 h [2, 4] was greater than 320 mg/kg.

In the case of CC(=NOCC(=O)O)c1ccc(C)cc1 [CH3 H H CH3 CH2 OH], the LD50 at 24 h [2, 4] is reported as greater than 320 mg/kg.

For CC(=NOCC(=O)O)c1ccc(S(C)(=O)=O)cc1 [CH3 SO2 H H CH3 CH2 OH], the LD50 at 24 h [2, 4] was greater than 320 mg/kg.

In the case of CC(=NOCC(=O)O)c1cccc(Cl)c1 [H C1 H CH3 CH2 OH], the LD50 at 24 h [2, 4] is reported as greater than 320 mg/kg.

With CCCCNC(=O)CON=C(C)c1ccc(Cl)cc1 [N-n.butyl-[(α-methyl-4-chlorobenzylideneamino)oxy] acetamide] the “activity against Rhine virus” value (Rhine virus) was “interesting activity”.
